Measurements taken from patent publication US20210369677A1, “SMALL MOLECULE ACTIVATORS OF POLYCYSTIN-2 (PKD2) AND USES THEREOF” (Northwestern University, priority 2020, published 2021).

Legend:
polycystin-2 channels [1] = target: T1, polycystin-2 channels (Mus musculus, UniProt O35245); test: Inside-out cilia patch of pIMCD cells, calcium opening of polycystin-2 channels; type: cell-based; details: Pkd2+/+ mice; read-out: EC50, potency of calcium opening polycystin-2 channels
T1 construct: the mouse channel orthologue under endogenous expression in the kidney collecting duct; endogenous in cells; host or cells: primary inner medullary collecting duct (pIMCD) cells of ARL13B-EGFP mice
T1 sequence (O35245 1-966): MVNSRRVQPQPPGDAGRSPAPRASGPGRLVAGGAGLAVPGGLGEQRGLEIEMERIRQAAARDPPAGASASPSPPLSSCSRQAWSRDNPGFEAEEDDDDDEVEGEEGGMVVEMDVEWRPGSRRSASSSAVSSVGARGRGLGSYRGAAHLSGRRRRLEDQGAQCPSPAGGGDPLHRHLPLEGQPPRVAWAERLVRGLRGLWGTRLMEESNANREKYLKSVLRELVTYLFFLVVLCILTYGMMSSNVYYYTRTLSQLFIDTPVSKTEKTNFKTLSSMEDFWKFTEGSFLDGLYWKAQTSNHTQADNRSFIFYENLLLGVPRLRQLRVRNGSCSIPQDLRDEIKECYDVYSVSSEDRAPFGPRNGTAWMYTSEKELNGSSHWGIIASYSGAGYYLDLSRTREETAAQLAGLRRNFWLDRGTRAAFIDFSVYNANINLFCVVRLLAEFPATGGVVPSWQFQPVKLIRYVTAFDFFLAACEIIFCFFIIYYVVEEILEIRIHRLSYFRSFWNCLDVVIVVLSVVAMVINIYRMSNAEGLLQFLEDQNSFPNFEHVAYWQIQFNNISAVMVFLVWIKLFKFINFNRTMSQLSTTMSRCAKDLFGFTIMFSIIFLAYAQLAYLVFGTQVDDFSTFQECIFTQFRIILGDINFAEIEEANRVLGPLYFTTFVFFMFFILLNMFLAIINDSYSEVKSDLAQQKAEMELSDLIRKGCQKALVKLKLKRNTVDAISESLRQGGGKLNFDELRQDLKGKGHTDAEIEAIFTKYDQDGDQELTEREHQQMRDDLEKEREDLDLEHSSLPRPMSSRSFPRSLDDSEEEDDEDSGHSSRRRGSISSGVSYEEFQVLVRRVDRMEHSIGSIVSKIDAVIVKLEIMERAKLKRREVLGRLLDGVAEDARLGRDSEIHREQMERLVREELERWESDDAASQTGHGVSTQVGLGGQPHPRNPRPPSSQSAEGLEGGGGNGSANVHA
Protocol: (§1) Cell culture of primary inner medullary collecting duct cells and immortalized cell lines. Primary inner medullary collecting ducts cells (pIMCD) were isolated from WT or Pkd2^del-Z/del-Z mice co-expressing the ARL13B-EGFP cilia reporter using the previously described method (Liu et al., 2018). Briefly, inner medullae were removed from the kidney and disassociated using a Dulbecco's phosphate buffered solution (DPBS) containing 2 mg/ml collagenase A and 1 mg/ml hyaluronidase. After mechanical disassociation on ice, medullary cells were cultured in Dulbecco's modified essential medium (DMEM) supplemented with 10% fetal bovine serum (FBS) and 100 units/ml penicillin/100 μg/ml streptomycin. Cilia were patched from cells within 6 days after isolation and within one passage. HEK PKD2^Null cell lines were generated using the CRISPR/Cas9 gene editing kit available from Addgene and authenticated using PCR analysis, as previously described (Liu et al., 2018). […]
(§2) Electrophysiology. The electrophysiologist was blinded by a third party in the laboratory, where test groups were assigned a letter to conceal the genetic identity of the cells being evaluated. […] Ciliary ion currents were recorded using borosilicate glass electrodes polished to resistances of 14-23 MΩ using the cilium patch method previously described (Vien et al., 2020). Single channel currents measured in the inside-out configuration were recorded in symmetrical sodium concentrations. […] Calcium was buffered with 5 EGTA (ethylene glycol-bis(o-aminoethyl ether)-N,N,N′,N′-tetraacetic acid), 5 Na4-BAPTA (Glycine, N, N′-[1,2-ethanediylbis(oxy-2,1-phenylene)]bis[N-(carboxymethyl)]-,tetrasodium) and 0.5 EDTA […]; free calcium was calculated using Maxchilator and titration of 1 M CaCl2) solution (Bers et al., 2010); pH was adjusted to 7.3 using NaOH. […] Whole cell currents used to measure CDD were also recorded in symmetrical sodium concentration, placing the internal recording solution in the pipette electrode and the external recording solution in the bath. […]

polycystin-2 channels [2] = test: as above; type: cell-based, mouse; details: Pkd2+/del-Z mice; read-out: EC50, potency of calcium opening polycystin-2 channels
Protocol: as §1, §2

SMILES: [Ca+2] [Ca^2+, calcium]
- EC50 (polycystin-2 channels [1]): 1200 ± 400 nM
- EC50 (polycystin-2 channels [2]): 1400 ± 400 nM
